This note sets out measurements from US20190119357A1, “MESSENGER RIBONUCLEIC ACIDS FOR THE PRODUCTION OF INTRACELLULAR BINDING POLYPEPTIDES AND METHODS OF USE THEREOF” (ModernaTX, Inc., priority 2015, published 2019).

One test relates to MCL1. Kind of test: MCL1 downregulation by Western blotting in Hep3B cells. Format: cell-based, human. Particulars: 24 hours, sorafenib 10 uM. The method, then: A first series of experiments was conducted to determine whether specific targeting of MCL1 recapitulates sorafenib synergy with SQT-BH3 in cells in vitro.
On the technique in general: Immunoblotting shows a protein as a band on a membrane.

The next test relates to Hep3B SC tumors. Kind of test: Combination with sorafenib in SCID mice bearing Hep3B SC tumors. It is filed as in vivo. Particulars: Sorafenib 10 mg/kg orally daily alone, three weeks, end of study. The method, then:
SCID mice bearing Hep3B SC tumors (tumor size range 140-227 mm^3; average=183 mm^3) were dosed over a three week period with a combination of 0.5% methyl cellulose daily and SQT IV at 1.5 mg/kg alone weekly (Days 1, 8 and 15; Group 1), Sorafenib (in 0.5% methyl cellulose) at 10 mg/kg orally daily alone (Group 2), mmRNA encoding SQT-PUMA-BH3 (comprising a miR122 binding site) weekly at 1.5 mg/kg IV alone (Group 3) or a combination of mmRNA encoding SQT-PUMA-BH3 (with miR122 binding site) at 1.5 mg/kg IV weekly with sorafenib at 10 mg/kg orally daily (Group 4; 10 animals per group).

The subject of a further test is systemic TF1a xenografts. The test is described as follows: Systemic TF1a xenografts in SCID mice (AML model). Format: in vivo. Particulars: TF1a-SCID; mRNA LNPs 3 mg/kg one time per week, cytarabine 2 mg/kg three times per week, IV, four weeks. The method, then: LNPs comprising the cationic lipid MC3 were tested using the optimal percentage of PEG-lipid and optimal PEG length (1.5% DSPE, C18, as described in Example 8), for in vivo targeted delivery of SQT-PUMA-BH3 in two different in vivo models of acute myeloid leukemia (AML). One model used systemic TF1a xenografts in SCID mice. The other model used systemic HEL xenografts in SCID mice. Each of these models uses a human erythroleukemia cell line. The HEL erythroleukia cell line is described in, for example, Martin, P. and Papayannopoulou, T. (1982) Science 216:1233-1235. The TF1 erythroleukmia cell line (from which TF1a is derived) is described in, for example, Kitamura, T. et al. (1989) J. Cell. Physiol. 140:323-334. Unless otherwise noted, mRNAs were fully modified with N1-methlypseudouridine to avoid stimulating an innate immune response to said mRNAs when administered in vivo.
In a first set of experiments, TF1a cells stably expressing luciferase (TF1α-luc cells) were implanted systemically in SCID mice. Tumor growth was measured by whole body bioluminescent imaging (BLI) in anaesthetized animals following SC injection of 150 mg/kg D-Luciferin, in an imaging chamber (Spectrum CT). Animals showing an increasing tumor burden at day 12 post-cell implantation were recruited for treatment. […]

SMILES strings stand for the structures.

As for `CNC(=O)c1cc(Oc2ccc(NC(=O)Nc3ccc(Cl)c(C(F)(F)F)c3)cc2)ccn1` [sorafenib, reference compound], the “MCL1 level (Western blotting)” value in the test on MCL1 is reported as “downregulates MCL1”. Further, the “tumor growth inhibition (TGI)” value in the test with Hep3B SC tumors was found to be 38%. For the compound `Nc1ccn([C@@H]2O[C@H](CO)[C@@H](O)[C@@H]2O)c(=O)n1` [cytarabine, reference compound], the “systemic tumor growth (BLI)” value with systemic TF1a xenografts is given as “did inhibit systemic tumor growth”.
